In publication PMC12102759 (Protein Science : A Publication of the Protein Society, 2025):

Tested on: G3BP1 NFT2
Type: binding, human
Conditions: library DMS-CoV; bait G3BP1 NFT2; prey N; peptide RNAPRITFGGPSDSTG; listed as aa = residue placed at this position; column sums to 1

Sequence	DMS PSSM value, I (position 6)	DMS PSSM value, G (position 10)	DMS PSSM value, S (position 14)	DMS PSSM value, A (position 3)	DMS PSSM value, N (position 2)	DMS PSSM value, S (position 12)	DMS PSSM value, D (position 13)	DMS PSSM value, F (position 8)	DMS PSSM value, P (position 4)	DMS PSSM value, G (position 9)
RNAPRITFGGPSDSTG I6W (RNAPRWTFGGPSDSTG)	0	–	–	–	–	–	–	–	–	–
RNAPRITFGGPSDSTG G10F (RNAPRITFGFPSDSTG)	–	0	–	–	–	–	–	–	–	–
RNAPRITFGGPSDSTG S14I (RNAPRITFGGPSDITG)	–	–	0	–	–	–	–	–	–	–
RNAPRITFGGPSDSTG S14A (RNAPRITFGGPSDATG)	–	–	0	–	–	–	–	–	–	–
RNAPRITFGGPSDSTG A3L (RNLPRITFGGPSDSTG)	–	–	–	0	–	–	–	–	–	–
RNAPRITFGGPSDSTG N2R (RRAPRITFGGPSDSTG)	–	–	–	–	0	–	–	–	–	–
RNAPRITFGGPSDSTG S12D (RNAPRITFGGPDDSTG)	–	–	–	–	–	0	–	–	–	–
RNAPRITFGGPSDSTG A3N (RNNPRITFGGPSDSTG)	–	–	–	0	–	–	–	–	–	–
RNAPRITFGGPSDSTG D13H (RNAPRITFGGPSHSTG)	–	–	–	–	–	–	0	–	–	–
RNAPRITFGGPSDSTG S14G (RNAPRITFGGPSDGTG)	–	–	0	–	–	–	–	–	–	–
RNAPRITFGGPSDSTG A3S (RNSPRITFGGPSDSTG)	–	–	–	0	–	–	–	–	–	–
RNAPRITFGGPSDSTG F8E (RNAPRITEGGPSDSTG)	–	–	–	–	–	–	–	0	–	–
RNAPRITFGGPSDSTG D13A (RNAPRITFGGPSASTG)	–	–	–	–	–	–	0	–	–	–
RNAPRITFGGPSDSTG P4N (RNANRITFGGPSDSTG)	–	–	–	–	–	–	–	–	0	–
RNAPRITFGGPSDSTG F8I (RNAPRITIGGPSDSTG)	–	–	–	–	–	–	–	0	–	–
RNAPRITFGGPSDSTG G9E (RNAPRITFEGPSDSTG)	–	–	–	–	–	–	–	–	–	0
RNAPRITFGGPSDSTG D13R (RNAPRITFGGPSRSTG)	–	–	–	–	–	–	0	–	–	–
RNAPRITFGGPSDSTG S14K (RNAPRITFGGPSDKTG)	–	–	0	–	–	–	–	–	–	–
RNAPRITFGGPSDSTG S12G (RNAPRITFGGPGDSTG)	–	–	–	–	–	0	–	–	–	–

Sequence	DMS PSSM value, I (position 6)	DMS PSSM value, G (position 10)	DMS PSSM value, S (position 14)	DMS PSSM value, A (position 3)	DMS PSSM value, N (position 2)	DMS PSSM value, S (position 12)	DMS PSSM value, D (position 13)	DMS PSSM value, F (position 8)	DMS PSSM value, P (position 4)	DMS PSSM value, G (position 9)
RNAPRITFGGPSDSTG G10T (RNAPRITFGTPSDSTG)	–	0	–	–	–	–	–	–	–	–
RNAPRITFGGPSDSTG G9I (RNAPRITFIGPSDSTG)	–	–	–	–	–	–	–	–	–	0
RNAPRITFGGPSDSTG P4T (RNATRITFGGPSDSTG)	–	–	–	–	–	–	–	–	0	–
RNAPRITFGGPSDSTG G9N (RNAPRITFNGPSDSTG)	–	–	–	–	–	–	–	–	–	0
RNAPRITFGGPSDSTG G10V (RNAPRITFGVPSDSTG)	–	0	–	–	–	–	–	–	–	–
RNAPRITFGGPSDSTG G9K (RNAPRITFKGPSDSTG)	–	–	–	–	–	–	–	–	–	0
RNAPRITFGGPSDSTG S14Y (RNAPRITFGGPSDYTG)	–	–	0	–	–	–	–	–	–	–
RNAPRITFGGPSDSTG F8Q (RNAPRITQGGPSDSTG)	–	–	–	–	–	–	–	0	–	–
RNAPRITFGGPSDSTG S12W (RNAPRITFGGPWDSTG)	–	–	–	–	–	0	–	–	–	–
RNAPRITFGGPSDSTG G10K (RNAPRITFGKPSDSTG)	–	0	–	–	–	–	–	–	–	–
RNAPRITFGGPSDSTG N2H (RHAPRITFGGPSDSTG)	–	–	–	–	0	–	–	–	–	–
RNAPRITFGGPSDSTG I6P (RNAPRPTFGGPSDSTG)	0	–	–	–	–	–	–	–	–	–
RNAPRITFGGPSDSTG S14W (RNAPRITFGGPSDWTG)	–	–	0	–	–	–	–	–	–	–
RNAPRITFGGPSDSTG S14M (RNAPRITFGGPSDMTG)	–	–	0.3095	–	–	–	–	–	–	–
RNAPRITFGGPSDSTG S12K (RNAPRITFGGPKDSTG)	–	–	–	–	–	0	–	–	–	–
RNAPRITFGGPSDSTG P4L (RNALRITFGGPSDSTG)	–	–	–	–	–	–	–	–	0	–
RNAPRITFGGPSDSTG S14L (RNAPRITFGGPSDLTG)	–	–	0	–	–	–	–	–	–	–
RNAPRITFGGPSDSTG G10I (RNAPRITFGIPSDSTG)	–	0	–	–	–	–	–	–	–	–

Same assay, conditions: library DMS-CoV; bait G3BP1 NFT2; prey N; peptide RNAPRITFGGPSDSTG; listed as aa = residue placed at this position; column sums to 1

Sequence	DMS PSSM value, T (position 7)	DMS PSSM value, G (position 16)	DMS PSSM value, R (position 5)	DMS PSSM value, T (position 15)	DMS PSSM value, P (position 11)
RNAPRITFGGPSDSTG T7N (RNAPRINFGGPSDSTG)	0	–	–	–	–
RNAPRITFGGPSDSTG G16R (RNAPRITFGGPSDSTR)	–	0	–	–	–
RNAPRITFGGPSDSTG R5T (RNAPTITFGGPSDSTG)	–	–	0.001368	–	–
RNAPRITFGGPSDSTG T15I (RNAPRITFGGPSDSIG)	–	–	–	1	–
RNAPRITFGGPSDSTG T7W (RNAPRIWFGGPSDSTG)	0	–	–	–	–
RNAPRITFGGPSDSTG T7Y (RNAPRIYFGGPSDSTG)	0	–	–	–	–
RNAPRITFGGPSDSTG T7R (RNAPRIRFGGPSDSTG)	0	–	–	–	–
RNAPRITFGGPSDSTG P11K (RNAPRITFGGKSDSTG)	–	–	–	–	0
RNAPRITFGGPSDSTG T7S (RNAPRISFGGPSDSTG)	0	–	–	–	–
RNAPRITFGGPSDSTG G16K (RNAPRITFGGPSDSTK)	–	0	–	–	–
RNAPRITFGGPSDSTG P11E (RNAPRITFGGESDSTG)	–	–	–	–	0
RNAPRITFGGPSDSTG R5W (RNAPWITFGGPSDSTG)	–	–	0	–	–
RNAPRITFGGPSDSTG G16P (RNAPRITFGGPSDSTP)	–	0	–	–	–
RNAPRITFGGPSDSTG R5I (RNAPIITFGGPSDSTG)	–	–	0.009613	–	–
RNAPRITFGGPSDSTG T15Y (RNAPRITFGGPSDSYG)	–	–	–	0	–
